The subject of test [1] is PBC patients. Briefly: THIN database cohort study of PBC patients: decompensation, liver transplant and mortality free survival by drug usage. It counts as in vivo, human. The source says: We conducted a cohort study using The Health Improvement Network (THIN). THIN is one of the largest medical databases in the UK^8, consisting of prospectively gathered electronic medical records from over 11.1 million patients^8. […] Data from participant general practitioners across the UK is exported to the THIN administrators and database, which is updated every 3 months^11. The THIN database records demographic data and clinical events using Read codes, prescription medications, and laboratory values^12.
We identified patients with PBC Read code “J6160” from April 1974 until May 2007. This cohort was followed until May 2012. We excluded patients having overlap syndrome with autoimmune hepatitis or primary sclerosing cholangitis. The first code of PBC identified in the THIN database was considered the index (ie. diagnosis) date. FIG. 10 provides a flow diagram illustrating the selection of the study population. The primary outcome was the first occurrence of one of the three events following the diagnosis of PBC: (1) decompensation of cirrhosis (ascites, spontaneous bacterial peritonitis, hepatic encephalopathy, hepatorenal syndrome, variceal bleeding, jaundice, or hepatocellular carcinoma); (2) liver transplantation; or (3) death.
Read codes were used to identify patients with chronic depression disorder. Chronic depression was defined as follows: (1) never diagnosed with chronic depression; (2) past depression diagnosis prior to 90 days from PBC diagnosis; and (3) current depression diagnosis if a diagnosis was made within 90 days before or after a PBC diagnosis. Using THIN database therapy files, we assessed the impact of anti-depressant medications on outcomes of PBC patients (mortality, decompensation, and liver transplant).
For each anti-depressant medication, use was defined as follows: (1) never used the medication; (2) past use as defined as a previous code for medication use prior to 90 days of PBC diagnosis; and (3) current medication user if the medication code was identified within 90 days before or after a PBC diagnosis. We assessed the effect of each anti-depressant medication on study outcomes separately. Antidepressants were classified as typical or atypical and stratified accordingly. Atypical antidepressants include: Agomelatine, Bupropion and Mirtazapine. While typical antidepressants include the following groups: (a) Selective Serotonin Reuptake Inhibitors (SSRI): Citalopram, Escitalopram, Fluoxetine, Fluvoxamine, Paroxetine and Sertraline; (b) […] (SNRI): Desvenlafaxine, Duloxetine, Minacipran and Venlafaxine; (c) Serotonin modulators: Nefazodone, Trazodone and Vilazodone; (d) Tricyclics and tetracyclics: Amitriptyline, Amoxapine, Clomipramine, Desipramine, Doxepin, Imipramine, Maprotiline, Nortriptyline and Protriptyline, Trimiprramine; (e) Monamine oxidase inhibitors: Isocarboxazid, Phenelzine, Selegiline and Tranylcypromine.
We assessed age at diagnosis of PBC, sex, and the presence of coexisting liver disease (ie. chronic hepatitis either viral, alcoholic, or fatty liver disease; yes/no). Smoking status was classified (current, former, never smoked, or unknown status) at the time of PBC diagnosis, alcohol consumption was classified (current, former, never consumed alcohol, or unknown status) at PBC diagnosis. Ursodeoxycholic acid (UDCA) usage (ever/never recorded) was also determined.
In our primary analysis, we assessed demographic, clinical, and medication variables in the PBC cohort according to depression status. Where appropriate, we used the Fisher Exact test or Chi-Square test for categorical data, and the Kruskal-Wallis or Student's t-test for continuous data. Univariate analysis using Log Rank test and multivariate Cox Proportional Regression models were used to assess the impact of depression or anti-depressant medications on PBC outcomes as defined by death, decompensated cirrhosis, or liver transplant. […]

Test [2] relates to PBC patients. The conditions noted are these: human, in vivo; listed as UDCA; cited from earlier work.
The mark [3] stands for this setting: URSO usage (ever/never recorded).

“And” between values parts separate entries of the source, which are not always exact repeats. Equal entries are not always repeated.

Regarding `CNCCC(Oc1ccc(C(F)(F)F)cc1)c1ccccc1` (stereo not drawn) [Fluoxetine], the “Univariate HR, 10-year decompensation, liver transplant and mortality free survival” value is reported as 0.58 in test [1] (current usage vs none) and 0.83 in test [1] (usage prior to PBC diagnosis vs none).

For the compound `C[C@H](CCC(=O)O)[C@H]1CC[C@H]2[C@@H]3[C@@H](O)C[C@@H]4C[C@H](O)CC[C@]4(C)[C@H]3CC[C@]12C` [URSO, ursodeoxycholic acid], in test [1] (setting [3]), the “Multivariate model-1 HR” value stood at 1.00; the “Multivariate model-2 HR” value was found to be 1.00; the “Univariate HR, 10-year decompensation, liver transplant and mortality free survival” value is 0.80. Moreover, the “Patients with PBC who do not fully respond to treatment” value in test [2] was 30% to 40% and 30-40%.

These data come from US11510928B2, “Use of mirtazapine in the treatment of inflammatory disorders, autoimmune disease and PBC” (UTI Limited Partnership, priority 2017, dated 2022).
